“And” between values parts separate entries of the source, which are not always exact repeats. Equal entries are not always repeated.
Columns and labels:
[1] = test system: patients with TGCT not amenable to surgery; assay: Phase 3 study of vimseltinib in patients with TGCT: safety (TEAEs, Part 1); assay type: in vivo, human
Protocol: (§1) This study is a two-part, randomized, double-blind, placebo-controlled study to assess the efficacy and safety of vimseltinib in patients with TGCT not amenable to surgery with no prior anti-CSF1/CSF1R therapy (prior therapy with imatinib or nilotinib allowed). In Part 1, patients (n=123) were randomized two-to-one to receive either 30 mg twice weekly of vimseltinib (n=83) or placebo (n=40) for 24 weeks. Vimseltinib or matching placebo was administered orally each week on day 1 and day 5 (±1 day) at approximately the same time of day on an empty stomach, with ≥24 hours between doses. An MRI of the affected joint was performed at screening, cycle 4 day 1 (week 13; ±7 days), and at the end of Part 1. Part 2 is an ongoing open-label study, in which patients from both the vimseltinib and placebo arms receive treatment with vimseltinib.
(§2) The primary endpoint of the study is the objective response rate (ORR) at Week 25 as measured by Response Evaluation Criteria in Solid Tumors (RECIST) version 1.1 by blinded independent radiologic review (IRR). Key secondary endpoints included the objective response rate at Week 25 by IRR per tumor volume score (TVS), active range of motion (ROM) at Week 25, PROMIS physical function (PROMIS-PF) score, worst stiffness numeric rating scale (NRS) score at Week 25, EQ-visual analogue scale (EQ-VAS) score at Week 25, and greater than or equal to 30% reduction in Brief Pain Inventory (BPI) in worst pain and less than 30% increase in narcotic use (BPI-30) at Week 25. Other secondary endpoints included duration of response (DOR) and safety.
Vimseltinib was well-tolerated and the safety profile in the study was consistent with previously disclosed data. […] Patients with treatment-emergent adverse events (TEAEs) leading to treatment discontinuation was 5% in the vimseltinib arm. The table below lists TEAEs greater than 15% in either arm during Part 1 of the study.

[2] = test system: patients with TGCT not amenable to surgery; assay: Phase 3, randomized, placebo-controlled, double-blind study of vimseltinib in patients with TGCT: efficacy; assay type: in vivo, human
Protocol: as §1, §2
Eligibility Criteria: Eligible patients were aged ≥18 years with a histologically confirmed diagnosis of TGCT for which surgical resection would potentially cause worsening functional limitation or severe morbidity. Patients had at least 1 measurable lesion ≥2 cm using Response Evaluation Criteria in Solid Tumors version 1.1 (RECIST v1.1), as assessed from magnetic resonance imaging (MRI) by a central radiologist.
Patients were excluded for receiving previous systemic therapy targeting CSF1 or CSF1R including vimseltinib; previous therapy with imatinib and/or nilotinib was allowed. Patients who received any therapy for TGCT (including investigational therapy) during screening, had major surgery 14 days prior to the first dose of study drug, or participated in a non-TGCT investigational drug study within 30 days of screening were also excluded.
Tumor volume score (TVS) is a semiquantitative magnetic resonance imaging scoring system that describes tumor mass. It is based on 10% increments of the estimated volume of the maximally distended involved synovial cavity or tendon sheath. Scores ranged from 0 to 10, and a tumor that was equal in volume to that of a maximally distended synovial cavity or tendon sheath was scored a 10; a score of 0 indicated no evidence of a tumor.
Complete response denoted disappearance of all tumor(s). Partial response was at least a 50% reduction from baseline in TVS. Progressive disease was at least a 30% increase in TVS from baseline. Stable disease was neither a sufficient decrease to qualify for partial response nor sufficient increase to qualify for progressive disease, taking the nadir as a reference. Response was considered not evaluable if the TVS could not be assessed for reasons such as inadequate or missing imaging.
Active range of motion (ROM; in degrees) was assessed using a goniometer and was normalized using a reference standard provided by the American Medical Association to compute the relative active ROM. In joints where more than one motion was measured, the motion with the smallest relative ROM value (worst) was used for evaluating subsequent changes in relative active ROM.
Response for PROMIS-PF, worst stiffness NRS, and EQ-VAS was a change from baseline ≥3, ≤−2, and ≥7, respectively. BPI worst pain response was defined as a ≥30% reduction in worst pain without a ≥30% increase in narcotic analgesic use. […]

[3] = 30 mg twice weekly, n=83, Part 1
[4] = 30 mg twice weekly, ITT N=83, Week 25
[5] = 30 mg twice weekly, ITT, Week 25

## Cc1nc(-c2cnc(NC(C)C)n(C)c2=O)ccc1Oc1ccnc(-c2cnn(C)c2)c1 [Vimseltinib, 2-(isopropylamino)-3-methyl-5-(6-methyl-5-((2-(1-methyl-IH-pyrazol-4-yl)pyridin-4-yl)oxy)pyridin-2-yl)pyrimidin-4(3H)-one]
[1]; 30 mg twice weekly
  cholestatic hepatotoxicity: no evidence of cholestatic hepatotoxicity
  related SAE: one related SAE of subcutaneous abscess
  severe adverse events (SAE) per patient: no severe adverse event (SAE) occurred in more than one patient
  tolerability: well-tolerated
[1]; [3]
  TEAE AST increased, All Grades: 19 (23%) n (%)
  TEAE AST increased, Grade 3-4, number of patients: 0 n
  TEAE Arthralgia, All Grades: 16 (19%) n (%)
  TEAE Arthralgia, Grade 3-4, number of patients: 0 n
  TEAE Asthenia, All Grades: 22 (27%) n (%)
  TEAE Asthenia, Grade 3-4, number of patients: 1 n
  TEAE Asthenia, Grade 3-4, percent of patients: (1%)
  TEAE CPK increased, All Grades: 20 (24%) n (%)
  TEAE CPK increased, Grade 3-4, number of patients: 8 n
  TEAE CPK increased, Grade 3-4, percent of patients: 10%
  TEAE Diarrhea, All Grades: 10 (12%) n (%)
  TEAE Diarrhea, Grade 3-4, number of patients: 0 n
  TEAE Edema peripheral, All Grades: 15 (18%) n (%)
  TEAE Edema peripheral, Grade 3-4, number of patients: 0 n
  TEAE Face edema, All Grades: 26 (31%) n (%)
  TEAE Face edema, Grade 3-4, number of patients: 1 n
  TEAE Face edema, Grade 3-4, percent of patients: (1%)
  TEAE Fatigue, All Grades: 27 (33%) n (%)
  TEAE Fatigue, Grade 3-4, number of patients: 0 n
  TEAE Headache, All Grades: 23 (28%) n (%)
  TEAE Headache, Grade 3-4, number of patients: 1 n
  TEAE Headache, Grade 3-4, percent of patients: (1%)
  TEAE Hypertension, All Grades: 14 (17%) n (%)
  TEAE Hypertension, Grade 3-4, number of patients: 4 n
  TEAE Hypertension, Grade 3-4, percent of patients: (5%)
  TEAE Nausea, All Grades: 21 (25%) n (%)
  TEAE Nausea, Grade 3-4, number of patients: 0 n
  TEAE Periorbital edema, All Grades: 37 (45%) n (%)
  TEAE Periorbital edema, Grade 3-4, number of patients: 3 n
  TEAE Periorbital edema, Grade 3-4, percent of patients: (4%)
  TEAE Pruritus, All Grades: 24 (29%) n (%)
  TEAE Pruritus, Grade 3-4, number of patients: 2 n
  TEAE Pruritus, Grade 3-4, percent of patients: (2%)
  TEAE Rash maculo-papular, All Grades: 16 (19%) n (%)
  TEAE Rash maculo-papular, Grade 3-4, number of patients: 1 n
  TEAE Rash maculo-papular, Grade 3-4, percent of patients: (1%)
  TEAE Rash, All Grades: 16 (19%) n (%)
  TEAE Rash, Grade 3-4, number of patients: 0 n
[1]; 30 mg twice weekly, n=83, Part 1, listed as Vimseltinb
  TEAE CPK increased, Grade 3-4, percent of patients: (10%)
[1]; vimseltinib arm
  Patients with TEAEs leading to treatment discontinuation: 5%
[2]; 30 mg twice weekly, FIG. 7A
  clinical benefit (CR+PR+SD), best percentage change in target lesions by IRR: Nearly all patients receiving vimseltinib experienced clinical benefit
[2]; [4]
  BPI-30 Response in Worst Pain: 40 (48) n (%)
  CFB in EQ-VAS at Week 25, LS Mean: 13.5
  CFB in Worst Stiffness NRS at Week 25, LS Mean: −2.1
  CR by IRR per TVS: 4 (5%) n (%)
  Complete Response (CR) by IRR per RECIST 1.1: 4 (5%) n (%)
  ORR at Week 25 by IRR per RECIST 1.1: 33 (40%) n (%)
  ORR at Week 25 by IRR per RECIST v1.1: 40%
  PR by IRR per TVS: 52 (63%) n (%)
  Partial Response (PR) by IRR per RECIST 1.1: 29 (35%) n (%)
  Stable disease (SD) by IRR per RECIST 1.1: 42 (51%) n (%)
[2]; [5]
  CFB in EQ-VAS at Week 25, Difference in LS Mean vs placebo: 7.4
  CFB in Worst Stiffness NRS at Week 25, Difference in LS Mean vs placebo: −1.8
  Difference in BPI-30 Response in Worst Pain vs placebo (95% CI): 26% and 26 (4, 42) %
  Difference in ORR (vimseltinib vs placebo) by IRR per TVS: 67%
  Difference in ORR (vimseltinib vs. placebo) by IRR per RECIST 1.1: 40%
[2]; 30 mg twice weekly, N=79
  response rate in active ROM at Week 25: 48%
[2]; 30 mg twice weekly, N=79, response = change from baseline ≥3
  response rate in PROMIS-PF at Week 25: 43%
[2]; 30 mg twice weekly, N=79, response = change from baseline ≥7
  response rate in EQ-VAS at Week 25: 37%
[2]; 30 mg twice weekly, Week 25
  difference in response rate in EQ-VAS vs placebo: 12%
  difference in response rate in PROMIS-PF vs placebo: 18%
  difference in response rate in Worst Stiffness NRS vs placebo: 24%
  difference in response rate in active ROM vs placebo: 28%
[2]; 30 mg twice weekly, responders
  median duration of response by IRR per RECIST v1.1: not reached
  median duration of response by IRR per TVS: not reached
[2]; 30 mg twice weekly, response = change from baseline ≤−2
  response rate in Worst Stiffness NRS at Week 25: 39%
[2]; 30 mg twice weekly, ≥30% reduction in BPI worst pain NRS and <30% increase in narcotic use
  BPI-30 response rate in Worst Pain at Week 25: 48%
[2]; Week 25, versus placebo, FIG. 8
  functional and symptomatic improvement across active ROM, PROMIS-PF, worst stiffness NRS, BPI worst pain: More patients experienced improvement in multiple measures
[2]; after 6 months
  tumor responses, updated results: sustained tumor responses

From US20260048052A1, “METHODS OF TREATING TENOSYNOVIAL GIANT CELL TUMORS” (Deciphera Pharmaceuticals, LLC, priority 2023, published 2026)
